These results are taken from patent US7026343B2, “Pharmacologic inhibition of Myc function” (University of Pittsburgh - of the Commonwealth System of …, priority 2002, dated 2006).

For test [1], the system named is Rat1a-c-Myc cells. The test is described as follows: In vivo tumor growth of pre-treated Rat1a-c-Myc cells in nude mice. The settings on record: cells exposed 3 days to compound, then inoculated subcutaneously; no further compound. The procedure: All growth curves were performed in 12-well tissue culture plates as previously described (Yin et al., (1999b)). Rat1a-neo, Rat1a-c-Myc, and TGR-1 fibroblasts were seeded at an initial density of 2×10^3 cells/well whereas HO15.19 c-Myc KO cells were seeded at 5×10^3 cells/well. The following day, each compound, or DMSO vehicle alone, was added to the indicated final concentrations. Fresh medium and compound were added every 3–4 days. Cells were trypsinized and manually counted at the indicated times. […] For in vivo assays, Rat1a-c-Myc cells were grown to approximately 50% confluency. Fresh medium plus the indicated compounds, or DMSO vehicle alone, were then added to cells for an additional 3 days. At the end of this time, none of the cultures contained fewer than […] apoptotic cells as determined by trypan blue staining and TUNEL assays. The cells were then washed twice in PBS, trypsinized and resuspended in a minimal volume of fresh medium containing the same concentration of compound. In total, 2×10^7 cells were then inoculated subcutaneously into the flanks of nude mice (five animals per group) and no additional compound was administered for the duration of the experiment. Tumor growth was monitored weekly and the average tumor volume ([…].) was calculated as previously described (Yin X. Y., Grove E., Rogulski K. and Prochownik E. V., (2002), J. Biol. Chem., 277:19998–20010).
Rat1a-c-Myc cells form rapidly growing tumors in nude mice (Yin et al., 1999b). […] Rat1a-c-Myc cells were therefore exposed to the indicated Myc-Max-specific compounds for 3 days at the concentrations shown in FIG. 4. […] These cells were then inoculated into nude mice and monitored for tumor formation. Rat1a-c-Myc cells that had been incubated for 3 days in DMSO vehicle only served as a positive control.
Rat1a-c-Myc cells were exposed to the indicated Myc-Max-specific compounds for 3 days at the concentrations shown in FIG. 4, and then inoculated subcutaneously into the flanks of nude mice (five animals per group). Based on trypan blue staining, >95% of the inoculated cells were viable at the time of inoculation. Tumor growth was monitored and recorded weekly. Each point indicates the average tumor volume among the groups ±1 s.e.

Test [2] concerns Rat1a-c-Myc cells. Kind of test: Cell cycle profiles by propidium iodide flow cytometry. Type of test: cell-based, rat. The settings on record: 24 h, concentrations of FIG. 4. The procedure:
This assay was performed as previously described (Nesbit C. E., Grove L. E., Yin X. Y. and Prochownik E. V. (1998), Cell Growth Differ., 9:731–741; Nesbit C. E., Tersak J. M., Grove L. E., Drzal A., Choi H. and Prochownik E. V. (2000), Oncogene, 19:3200–3212; and Yin X. Y., Grove L., Datta N., Katula K., Long M. W. and Prochownik E. V. (2001), Cancer Res., 61:6487–6493). Cell cycle profiles were performed on propidium iodide-stained nuclei as previously described (Yin et al., (1999a)) using a Becton-Dickinson FACStar flow cytometer. A total of 2×10^4 cells were analyzed in triplicate for each point and quantitation was performed using single histogram statistics.
In contrast to c-Myc's promotion of cell cycle progression, its inhibition halts this process and results in an accumulation of cells in G0/G1 (Freytag S. O. (1988), Mol. Cell. Biol., 8:1614–1624; Prochownik et al., 1988 and deAlboran et al., 2001). Therefore, it was asked whether any of the above compounds could affect the cell cycle profiles of otherwise actively proliferating cells. Rat1a-c-Myc cells were plated at low concentrations and grown for 2 additional days until attaining approximately 30% confluency. The cells were then re-fed with fresh medium alone, medium containing DMSO only, or medium containing each of the Myc-Max-specific compounds. After 24 h, cells were harvested and cell cycle profiles were generated by flow cytometry following propidium iodide staining (Yin et al., 2001). […] In contrast, all of the compounds tested caused significant increases in the fraction of the G0/G1 population.

For the molecule `O=[N+]([O-])c1ccc(CCNC2CC3CCC2C3)cc1` (stereo not shown) [#10009, bicyclo[2.2.1]hept-2-yl-[2-(4-nitro-phenyl)-ethyl]-amine], the “inhibition of in vivo tumor growth” value in the test on Rat1a-c-Myc cells [1] is recorded as “inhibition of in vivo tumor growth”. Also, in the test on Rat1a-c-Myc cells [2], the “% of cells in G0/G1” value worked out at 66.3%, the “% of cells in G2/M” value was 10.6% and the “% of cells in S” value worked out at 23.1%.

As for `CCCOc1ccc(N2C(=O)CC(N3CCC(C(=O)O)CC3)C2=O)cc1` (stereo not shown) [#10031, 1-[2,5-dioxo-1-(4-propoxy-phenyl)-pyrrolidin-3-yl]-piperidine-4-carboxylic acid], in the test with Rat1a-c-Myc cells [2], the “% of cells in G0/G1” value is given as 60.9%, the “% of cells in G2/M” value was determined as 5.2% and the “% of cells in S” value was determined as 33.9%.

On to `Cc1ccc2c(c1)C(=NNc1nc(C)c(C(=O)Nc3cccc([N+](=O)[O-])c3)s1)CC(c1ccccc1)O2` (stereo not shown) [#10050, 4-methyl-2-[N′-(6-methyl-2-phenyl-chroman-4-ylidene)-hydrazino]-thiazole-5-carboxylic acid (3-nitrophenyl)-amide], for which the “inhibition of in vivo tumor growth” value in the test on Rat1a-c-Myc cells [1] is reported as “inhibition of in vivo tumor growth”. In the test with Rat1a-c-Myc cells [2], the “% of cells in G0/G1” value came out at 58.7%, the “% of cells in G2/M” value was 11.7% and the “% of cells in S” value was determined as 29.6%.

For the molecule `CCc1ccc(C=C2SC(=S)NC2=O)cc1` [#10058, 5-(4-ethyl-benzylidene)-2-thioxothiazolidin-4-one], in the test on Rat1a-c-Myc cells [1], the “inhibition of in vivo tumor growth” value was “inhibition of in vivo tumor growth”. Also, in the test on Rat1a-c-Myc cells [2], the “% of cells in G0/G1” value is listed as 62.6%, the “% of cells in G2/M” value is recorded as 13.7% and the “% of cells in S” value was found to be 23.7%.

`O=C1CSC(=O)N1CC(O)Cn1c2ccc(Cl)cc2c2cc(Cl)ccc21` (stereo not shown) [#10074A4, 3-[3-(3,6-dichloro-carbazol-9-yl)-2-hydroxy-propyl]-thiazolidine-2,4-dione]: the “inhibition of in vivo tumor growth” value in the test with Rat1a-c-Myc cells [1] is listed as “inhibition of in vivo tumor growth”. In addition, in the test on Rat1a-c-Myc cells [2], the “% of cells in G0/G1” value is 68.7%, the “% of cells in G2/M” value is 9.8% and the “% of cells in S” value stood at 21.5%.

Turning to `O=[N+]([O-])c1ccc(Nc2ccccc2-c2ccccc2)c2nonc12` [#10074G4, biphenyl-2-yl-(7-nitro-benzo[1,2,5]oxadiazol-4-yl)-amine], in the test with Rat1a-c-Myc cells [2], the “% of cells in G0/G1” value is 53.9%, the “% of cells in G2/M” value stood at 7.4% and the “% of cells in S” value was 38.7%.

`CCN(CC)C1CC(=O)N(c2cccc(Cl)c2)C1=O` (stereo not shown) [#10075, 1-(3-Chloro-phenyl)-3-diethylamino-pyrrolidine-2,5-dione]: in the test with Rat1a-c-Myc cells [2], the “% of cells in G0/G1” value worked out at 65.1%, the “% of cells in G2/M” value is reported as 10.7% and the “% of cells in S” value turned out to be 24.2%.
